# Patent US11708564B2 (priority 2017, dated 2023)
# Tested on: active D-proline reductase
# Assay: Conversion of D-proline analog substrates by E. coli cells expressing active D-proline reductase (PrdA, PrdB, PrdH), TLC analysis
# Assay type: biochemical, Peptoclostridium difficile 630
# Settings: substrate 10 mM, DTT 25 mM, 6 hours, E. coli BL21(DE3) cells OD 50 in 0.1 M phosphate buffer pH 8.0, TLC
# Procedure: The obtained E. coli cells were adjusted to a final OD of 50, followed by centrifugation. After primary washing, E. coli cells were diluted with 1 mL of 0.1 M phosphate buffer (pH 8.0). Next, each 200 ul of the diluted samples was dispensed, and DTT (final concentration of 25 mM) and various substrates (final concentration of 10 mM, FIG. 11A) were added and allowed to react for 6 hours, followed by TLC analysis.
# When cis-4-hydroxy-D-proline or trans-4-hydroxy-D-proline is subjected to the conversion reaction, 5-amino-4-hydroxypentanoic acid is produced.
Compound,product formation on TLC after the conversion reaction,"reaction rate of the conversion by D-proline reductase, compared with D-proline"
O=C(O)[C@H]1CCN1 [D-azetidine-2-carboxylic acid],GABA production was clearly observed on TLC,"relatively low reaction rate, as compared with D-proline"
O=C(O)[C@H]1C[C@@H](O)CN1 [cis-4-hydroxy-D-proline],substrate reduction on TLC and newly formed TLC spot were observed,"relatively low reaction rate, as compared with D-proline"
O=C(O)[C@H]1C[C@H](O)CN1 [trans-4-hydroxy-D-proline],substrate reduction on TLC and newly formed TLC spot were observed,"relatively low reaction rate, as compared with D-proline"
